From US8865724B2, “Preparation of 2-methyl-4-amino-5(substituted-1H-1,2,3-triazolyl)methylpyrimidine derivatives and microbicidal activity thereof” (Central China Normal University, priority 2011, dated 2014) come the findings set out here.

In general, melting point refers to the temperature of the solid-liquid transition.

Data set [1] concerns gray mold of cucumber. As to the kind of experiment: Spawn growth rate on agar plates (Embodiment 9). It counts as cell-based, Botrytis cinerea. The following applies: 48 h, testing concentration of 100 μg/g; Table 4; read-out: Gray mold of cucumber Average inhibition rate (%).
The test system of data set [2] is tobacco brown spot. As to the kind of experiment: microbe, parasite or virus in culture. Particulars: 48 h, testing concentration of 100 μg/g; Table 4; read-out: Tobacco brown spot Average inhibition rate (%). The class given is cell-based, Alternaria alternate (Fries) Keissler.
The subject of data set [3] is anthracnose of cucumber. Kind of data set: Spawn growth rate on agar plates (Embodiment 9). The following applies: 48 h; testing concentration of 100 μg/g; Table 5. It counts as cell-based, GloeosporiumorbiculareArs.
Data set [4] deals with wheat scab. As to the kind of experiment: microbe, parasite or virus in culture. It counts as cell-based, Gibberella zeae. The following applies: 48 h, read-out: Wheat scab Average inhibition rate (%).
Data set [5] deals with Rice Sheath Blight Disease. Kind of data set: Microbicidal activity, spray then strip inoculation (Embodiment 8). The following applies: Oryza sativa, read-out: Rice Sheath Blight Disease Average inhibition rate (%).
Protocol: (§1) (Pseudomonassyringaepv. tomato (Okabe) Young, Dye & Wilkie), Cucumber Angular Leaf Spot, Rice Sheath Blight Disease (Rhizoctonia solani), Corynespora Leaf Spot of Cucumber (Corynespora cassiicola), Downy Mildew of Cucumber (Cucumber Downy Mildew).
(§2) Testing agents and control agents were sprayed uniformly at A.M. of a sunshine day on the cucumber seminal leaves. After 2 hours, the leaves were inoculated with pathogenic microbes and cultured at humidity. […] Strip inoculation is used for Rice Sheath Blight Disease and phytophthora blight of pepper, in which the liquor was sprayed and after 2 hours, inoculation of strips was performed followed by culturing at humidity. After full occurrence of diseases in the control group, state of illness was examined according to grading standards, and a disease index and inhibition rate were calculated.
Data set [6] concerns Cucumber Angular Leaf Spot. Kind of data set: Microbicidal activity on cucumber seedlings, spray then inoculation (Embodiment 8). Particulars: Cucumis sativus, read-out: Cucumber Angular Leaf Spot Average inhibition rate (%).
Protocol: as §1, §2
Data set [7] relates to Corynespora Leaf Spot of Cucumber. As to the kind of experiment: Microbicidal activity on cucumber seedlings, spray then spore inoculation (Embodiment 8). Particulars: Corynespora, in Cucumis sativus, read-out: Corynespora Leaf Spot of Cucumber Average inhibition rate (%).
Protocol: as §1, §2
Data set [8] concerns Downy Mildew of Cucumber. The description is as above. The following applies: Cucumis sativus, read-out: Downy Mildew of Cucumber Average inhibition rate (%).
Protocol: as §1, §2
Data set [9] deals with Cucumber Angular Leaf Spot. Kind of data set: Microbicidal activity on cucumber seedlings, spray then inoculation (Embodiment 7). The following applies: Cucumis sativus, read-out: Cucumber bacterial spot (%), controlling effect.
Protocol: Testing Materials: Strain: Cucumber Angular Leaf Spot
Testing method: a cucumber seedling at the stage of 2 seminal leaves was inoculated by spraying a suspension of Cucumber Angular Leaf Spot. Testing agents and control agents were sprayed uniformly on the seminal leaves at A.M. of a sunshine day respectively. After 2 hours, the leaves were inoculated with pathogenic microbes and cultured at humidity. After full occurrence of disease in control group, state of illness was examined according to grading standards, and the controlling effects were measured.
Data set [10] has as its system early blight of tomato. Kind of data set: Spawn growth rate on agar plates (Embodiment 9). The class given is cell-based, Alternaria solania. Particulars: 48 h; testing concentration of 100 μg/g; Table 5.

For the compound `Cc1ncc(Cn2cc(COc3ccc(Cl)cc3)nn2)c(N)n1` [Compound 2], the melting point lay in the range of 168 to 170 °C. Also, the inhibition of growth at 100 µg/g in data set [1] was 73%. Further, the inhibition of growth at 100 µg/g in [2] amounted to 52%. The same compound had an inhibition of growth at 100 µg/g in [3] of 50%. In addition, the inhibition of growth at 100 µg/g in data set [4] was found to be 51%. In [5], the pest or weed control at 500 µg/g was 80%. Also, the pest or weed control at 500 µg/g in [6] was determined as 60%. Besides, the pest or weed control at 500 µg/g in data set [7] turned out to be 55%. The pest or weed control at 500 µg/g in data set [8] was determined as 75%.

`Cc1ncc(Cn2cc(COC(=O)c3cc([N+](=O)[O-])cc([N+](=O)[O-])c3)nn2)c(N)n1` [Compound 35] displayed a melting point of 142 to 143 °C. Besides, the inhibition of growth at 100 µg/g in [1] was 49%. Also, the inhibition of growth at 100 µg/g in data set [2] was 75%. The inhibition of growth at 100 µg/g in data set [3] came to 50%. Besides, the pest or weed control at 500 µg/g in data set [5] was 50%. Moreover, in data set [9], the pest or weed control at 500 µg/g came out at 45%. For the same compound, the pest or weed control at 500 µg/g in [6] turned out to be 80%.

`Cc1ncc(Cn2cc(COC(=O)c3cccc(Cl)c3)nn2)c(N)n1` [Compound 39] had a melting point of 165 to 166 °C. The inhibition of growth at 100 µg/g in [1] is 84%. For the same compound, the inhibition of growth at 100 µg/g in data set [2] was 50%. The compound also displayed an inhibition of growth at 100 µg/g in data set [3] of 52%. Besides, the pest or weed control at 500 µg/g in data set [5] is 60%. For the same compound, the pest or weed control at 500 µg/g in [9] is 60%. Moreover, the pest or weed control at 500 µg/g in data set [6] was determined as 10%.

`Cc1ncc(Cn2cc(COC(=O)c3ccc([N+](=O)[O-])cc3)nn2)c(N)n1` [Compound 32]: the inhibition of growth at 100 µg/g in data set [1] was 59%; in data set [2] it was 87%; in [3], 67%; in [10], 63%. Further, the pest or weed control at 500 µg/g in data set [5] and in [9] was 60% in each case.

`Cc1ncc(Cn2cc(COc3cccc(C(F)(F)F)c3)nn2)c(N)n1` [Compound 4] displayed a melting point of 160 to 161 °C. Moreover, in data set [1], the inhibition of growth at 100 µg/g was 77%. Also, the inhibition of growth at 100 µg/g in data set [2] is 66%. This compound came in with an inhibition of growth at 100 µg/g in data set [3] of 65%. This compound returned an inhibition of growth at 100 µg/g in data set [10] of 51%. Besides, the pest or weed control at 500 µg/g in [5] was 60%. Also, the pest or weed control at 500 µg/g in data set [6] turned out to be 60%. Moreover, the pest or weed control at 500 µg/g in data set [7] worked out at 70%. In addition, the pest or weed control at 500 µg/g in [8] was determined as 35%.

With `Cc1ncc(Cn2cc(COc3ccc(Cl)cc3Cl)nn2)c(N)n1` [Compound 10], the melting point is 175 to 177 °C. Moreover, the inhibition of growth at 100 µg/g in data set [1] was determined as 56%. Also, in [2], the inhibition of growth at 100 µg/g worked out at 58%. The compound further gave an inhibition of growth at 100 µg/g in data set [3] of 64%. Further, the pest or weed control at 500 µg/g in [5] stood at 70%. Besides, the pest or weed control at 500 µg/g in data set [6] amounted to 60%. Further, in [7], the pest or weed control at 500 µg/g came to 70%. Besides, the pest or weed control at 500 µg/g in data set [8] was 50%.

`Cc1ccc(C(=O)OCc2cn(Cc3cnc(C)nc3N)nn2)cc1` [Compound 38] gave a melting point of 202 to 203 °C. Moreover, the inhibition of growth at 100 µg/g in data set [1] is 61%. Moreover, the inhibition of growth at 100 µg/g in data set [3] was 54%. Further, in data set [4], the inhibition of growth at 100 µg/g was 56%. For the same compound, the pest or weed control at 500 µg/g in [5] stood at 50%. Besides, in [9], the pest or weed control at 500 µg/g worked out at 60%. In addition, in data set [6], the pest or weed control at 500 µg/g turned out to be 40%.

Take `Cc1ncc(Cn2cc(COc3ccc([N+](=O)[O-])cc3Cl)nn2)c(N)n1` [Compound 15]: the melting point was in the range of 194 to 196 °C. In addition, the inhibition of growth at 100 µg/g in data set [1] was 44%. The inhibition of growth at 100 µg/g in [3] is 57%. The pest or weed control at 500 µg/g in data set [5] worked out at 60%. The pest or weed control at 500 µg/g in data set [6] is 60%. Moreover, in [7], the pest or weed control at 500 µg/g worked out at 80%. The pest or weed control at 500 µg/g in data set [8] was 30%.
